Results reported in ChEMBL document CHEMBL1154806, “Indole derivatives from a marine sponge-derived yeast as DPPH radical scavengers” (J Nat Prod, 2009).
The source made the active and inactive calls. The calls are words filed in the database; no cut-off is given here.

How the values were obtained:
Format in all cases: functional
[1] = tested on: Radical scavenging activity; experiment: Antioxidant activity assessed as DPPH radical scavenging activity at 300 uM after 48 hrs by spectrophotometry
[2] = Antioxidant activity assessed as oxygen radical scavenging activity by ORAC assay
[3] = Antioxidant activity assessed as ABTS radical scavenging activity

| Structure (SMILES) | Activity [1] [%] | Activity [2] | Activity [3] |
| --- | --- | --- | --- |
| OCCc1ccc(O)cc1 | 26 | Active | – |
| CC(O)C(=O)OCCc1c[nH]c2ccccc12 (stereo not drawn) | 33 | – | – |
| OCCc1c[nH]c2ccccc12 | 52 | – | Active |
| Cc1cc(C(C)(C)C)c(O)c(C(C)(C)C)c1 | 86 | – | – |
| O=C1N[C@@H](Cc2ccc(O)cc2)C(=O)N2CCC[C@@H]12 | 16 | – | – |
| O=C(CCCCO)OCCc1c[nH]c2ccccc12 | 47 | – | – |
